This passage reports IC50 and inhibition results from patent US7135466B2 (Kirin Beer Kabushiki Kaisha, priority 1999, dated 2006).

Structures are written as SMILES.

The target of one assay is T1, PDGF-Ra (Homo sapiens, UniProt P16234).
T1 construct: host or cells: G-292 human osteosarcoma cells
As to the kind of experiment: Inhibitory activity against PDGF-Ra phosphorylation by PDGF-AA stimulation using G292. Type of assay: cell-based. To be noted: for IC50: Pharmacological Test Example 1, > means inhibition at indicated concentration not more than 50%, < and << not less than 50%, read-out: PDGF (E) IC50; for inhibition at 0.1 µM: G292, figure in parentheses in >100( ), at 100 nM, read-out: PDGF (E) inhibition (%) at 100 nM. In outline:
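Cells seeded in low-serum medium are exposed to test compound for one hour, then PDGF-AA (50 ng/ml) triggers receptor phosphorylation for 5 min at 37 °C. Phospho-PDGF-Ra in solubilized cells is quantified by anti-phosphotyrosine capture ELISA at 450 nm.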

The target in a further assay is T2, c-kit (Homo sapiens, UniProt P10721).
T2 construct: MO7e (human megakaryocytic leukemia cell line) which had been arrested for 20 hr; endogenous in cells; host or cells: MO7e human megakaryocytic leukemia cell line
The assay is described as follows: Inhibitory activity against c-kit autophosphorylation (MO7e cells, h-SCF). Type of assay: cell-based. Particulars: for IC50: MO7e cells, h-SCF 50 ng/ml, read-out: c-kit IC50; for inhibition at 1 µM: Mo7e, figure in parentheses in −( ), at 1000 nM. In outline:
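First, human megakaryocytic leukemia MO7e cells arrested 20 hr receive compound for one hour. Second, SCF stimulation (50 ng/ml) runs 5 min, after which cells are solubilized. Third, tyrosine-phosphorylated c-kit in the lysate is quantified by sandwich ELISA with absorbance at 450 nm.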

T2 sequence (P10721 26-976): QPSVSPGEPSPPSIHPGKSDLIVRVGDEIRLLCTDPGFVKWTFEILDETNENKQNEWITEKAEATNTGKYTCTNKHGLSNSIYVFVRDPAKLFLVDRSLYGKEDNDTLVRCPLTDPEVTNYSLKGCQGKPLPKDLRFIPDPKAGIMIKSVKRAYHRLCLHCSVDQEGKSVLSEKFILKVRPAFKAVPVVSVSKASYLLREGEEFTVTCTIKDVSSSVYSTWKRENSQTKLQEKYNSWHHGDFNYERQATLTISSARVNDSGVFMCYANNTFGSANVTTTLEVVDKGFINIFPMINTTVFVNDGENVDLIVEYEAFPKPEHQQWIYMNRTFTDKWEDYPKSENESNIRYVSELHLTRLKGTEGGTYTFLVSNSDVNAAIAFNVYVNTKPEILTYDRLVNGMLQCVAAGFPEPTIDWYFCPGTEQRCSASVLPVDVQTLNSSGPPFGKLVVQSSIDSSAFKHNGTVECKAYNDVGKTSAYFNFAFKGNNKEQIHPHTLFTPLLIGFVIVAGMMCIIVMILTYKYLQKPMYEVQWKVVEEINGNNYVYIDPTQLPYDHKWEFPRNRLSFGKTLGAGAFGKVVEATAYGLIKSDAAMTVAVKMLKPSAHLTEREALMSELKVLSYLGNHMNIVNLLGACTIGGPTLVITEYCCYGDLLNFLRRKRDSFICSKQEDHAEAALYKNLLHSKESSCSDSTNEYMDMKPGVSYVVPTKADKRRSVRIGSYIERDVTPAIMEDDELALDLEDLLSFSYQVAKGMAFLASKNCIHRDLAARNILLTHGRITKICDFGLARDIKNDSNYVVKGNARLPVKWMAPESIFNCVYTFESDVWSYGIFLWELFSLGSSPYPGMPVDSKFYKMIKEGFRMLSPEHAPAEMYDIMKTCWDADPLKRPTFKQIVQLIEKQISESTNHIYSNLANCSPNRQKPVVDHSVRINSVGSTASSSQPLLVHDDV
T1 sequence (P16234 24-1089): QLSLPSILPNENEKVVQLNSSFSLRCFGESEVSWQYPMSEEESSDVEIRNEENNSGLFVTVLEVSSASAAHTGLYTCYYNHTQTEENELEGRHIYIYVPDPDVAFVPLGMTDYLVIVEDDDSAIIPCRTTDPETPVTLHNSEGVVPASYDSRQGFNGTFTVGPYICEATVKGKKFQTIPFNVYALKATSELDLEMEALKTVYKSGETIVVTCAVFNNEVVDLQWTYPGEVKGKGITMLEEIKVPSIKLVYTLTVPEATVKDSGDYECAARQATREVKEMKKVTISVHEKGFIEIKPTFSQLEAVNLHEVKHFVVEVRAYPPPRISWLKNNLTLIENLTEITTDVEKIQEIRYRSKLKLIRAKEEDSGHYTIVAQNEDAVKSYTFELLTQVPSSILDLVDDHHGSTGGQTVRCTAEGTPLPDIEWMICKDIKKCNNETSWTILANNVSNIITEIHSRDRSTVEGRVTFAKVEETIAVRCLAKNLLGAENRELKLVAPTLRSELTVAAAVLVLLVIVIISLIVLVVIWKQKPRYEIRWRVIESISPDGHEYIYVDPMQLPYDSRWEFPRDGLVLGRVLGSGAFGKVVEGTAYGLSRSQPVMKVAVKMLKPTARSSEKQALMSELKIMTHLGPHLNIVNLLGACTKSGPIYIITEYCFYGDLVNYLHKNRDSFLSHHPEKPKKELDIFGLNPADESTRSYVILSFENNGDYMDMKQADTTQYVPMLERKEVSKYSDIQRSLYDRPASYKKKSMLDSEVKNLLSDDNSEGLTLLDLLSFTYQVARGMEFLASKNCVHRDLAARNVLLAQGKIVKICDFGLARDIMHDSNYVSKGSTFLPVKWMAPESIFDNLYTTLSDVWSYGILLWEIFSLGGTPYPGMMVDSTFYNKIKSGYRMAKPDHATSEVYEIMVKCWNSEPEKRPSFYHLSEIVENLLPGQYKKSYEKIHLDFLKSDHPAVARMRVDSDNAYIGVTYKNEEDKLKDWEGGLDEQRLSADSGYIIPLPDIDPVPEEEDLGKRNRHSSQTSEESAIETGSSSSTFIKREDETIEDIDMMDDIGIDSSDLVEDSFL

Turning to `COc1cc2nccc(Oc3cc(C)c(NC(=O)OCCc4ccccc4)cc3C)c2cc1OC` [Example 298, Phenethyl N-{4-[(6,7-dimethoxy-4-quinolyl)oxy]-2,5-dimethylphenyl}carbamate], the IC50 at PDGF-Ra was below 0.01 µM; at c-kit, 0.119 µM.
Consider `COc1cc2nccc(Oc3ccc(NC(=O)OCCc4ccccc4)c(C)c3C)c2cc1OC` [Example 299, Phenethyl N-{4-[(6,7-dimethoxy-4-quinolyl)oxy]-2,3-dimethylphenyl}carbamate], for which the figures for the IC50 on PDGF-Ra and at c-kit were below 0.01 µM and 0.053 µM, respectively.
On to `COc1cc2nccc(Oc3ccc(NC(=O)Oc4ccccc4C(C)(C)C)cc3)c2cc1OC` [Example 300], for which the IC50 at PDGF-Ra was below 0.01 µM. Moreover, the inhibition at 1 µM on c-kit was 43%.
Taken in the same sequence, the figures for `COc1cc2nccc(Oc3cc(C)c(NC(=O)Oc4ccccc4C(C)(C)C)cc3C)c2cc1OC` [Example 301, 2-(Tert-butyl)phenyl N-{4-[(6,7-dimethoxy-4-quinolyl)oxy]-2,5-dimethylphenyl}carbamate] were 0.043 µM and 39%.
For `COc1cc2nccc(Oc3ccc(NC(=O)Oc4ccccc4C(C)(C)C)c(C)c3C)c2cc1OC` [Example 302, 2-(Tert-butyl)phenyl N-{4-[(6,7-dimethoxy-4-quinolyl)oxy]-2,3-dimethylphenyl}carbamate], the IC50 amounted to 0.012 µM at PDGF-Ra and 0.202 µM on c-kit.
In the case of `COc1cc2nccc(Oc3ccc(NC(=O)OCCN4CCCCC4)cc3)c2cc1OC` [Example 303, 2-Piperidinoethyl N-{4-[(6,7-dimethoxy-4-quinolyl)oxy]phenyl}carbamate], the IC50 on PDGF-Ra was found to be 0.011 µM; at c-kit, 0.188 µM.
On to `COc1cc2nccc(Oc3cc(C)c(NC(=O)OCCN4CCCCC4)cc3C)c2cc1OC` [Example 304, 2-Piperidinoethyl N-{4-[(6,7-dimethoxy-4-quinolyl)oxy]-2,5-dimethylphenyl}carbamate], for which the IC50 on PDGF-Ra turned out to be 0.063 µM; on c-kit, 0.401 µM.
With `COc1cc2nccc(Oc3ccc(NC(=O)OCCN4CCCCC4)c(C)c3C)c2cc1OC` [Example 305, 2-Piperidinoethyl N-{4-[(6,7-dimethoxy-4-quinolyl)oxy]-2,3-dimethylphenyl}carbamate], the IC50 on PDGF-Ra is 0.011 µM; on c-kit, 0.221 µM.
`COc1cc2nccc(Oc3ccc(NC(=O)OCCN4CCOCC4)cc3)c2cc1OC` [Example 306, 2-Morpholinoethyl N-{4-[(6,7-dimethoxy-4-quinolyl)oxy]phenyl}carbamate]: the IC50 at PDGF-Ra was 0.011 µM; on c-kit it was 0.072 µM.
As to `COc1cc2nccc(Oc3cc(C)c(NC(=O)OCCN4CCOCC4)cc3C)c2cc1OC` [Example 307, 2-Morpholinoethyl N-{4-[(6,7-dimethoxy-4-quinolyl)oxy]-2,5-dimethylphenyl}carbamate], on PDGF-Ra, the inhibition at 0.1 µM was found to be 49%. For the same molecule, the IC50 was above 0.1 µM on PDGF-Ra and 0.165 µM on c-kit.
For the molecule `COc1cc2nccc(Oc3ccc(NC(=O)OCCN4CCOCC4)c(C)c3C)c2cc1OC` [Example 308, 2-Morpholinoethyl N-{4-[(6,7-dimethoxy-4-quinolyl)oxy]-2,3-dimethylphenyl}carbamate], the IC50 at PDGF-Ra amounted to 0.02 µM; on c-kit, 0.101 µM.
Taken in the same sequence, the figures for `COc1cc2nccc(Oc3ccc(NC(=O)OCCCCCCN(C)C)cc3)c2cc1OC` [Example 309, 6-(Dimethylamino)hexyl N-{4-[(6,7-dimethoxy-4-quinolyl)oxy]phenyl}carbamate] were 0.01 µM and 0.285 µM.
As for `COc1cc2nccc(Oc3cc(C)c(NC(=O)OCCCCCCN(C)C)cc3C)c2cc1OC` [Example 310, 6-(Dimethylamino)hexyl N-{4-[(6,7-dimethoxy-4-quinolyl)oxy]-2,5-dimethylphenyl}carbamate], the IC50 amounted to 0.067 µM at PDGF-Ra and 0.607 µM on c-kit.
Taken in the same sequence, the figures for `COc1cc2nccc(Oc3ccc(NC(=O)OCCCCCCN(C)C)c(C)c3C)c2cc1OC` [Example 311, 6-(Dimethylamino)hexyl N-{4-[(6,7-dimethoxy-4-quinolyl)oxy]-2,3-dimethylphenyl}carbamate] were below 0.01 µM and 0.329 µM.
Taken in the same sequence, the figures for `COc1cc2ncnc(Oc3ccc(NC(=O)OC4CCCCC4)cc3)c2cc1OC` [Example 312, Cyclohexyl N-{4-[(6,7-dimethoxy-4-quinazolinyl)oxy]phenyl}carbamate] were below 0.01 µM and 0.029 µM.
With `COc1cc2ncnc(Oc3ccc(NC(=O)OC4CCCCC4)c(Cl)c3)c2cc1OC` [Example 313], the IC50 at PDGF-Ra was below 0.01 µM; at c-kit, 0.33 µM.
Taken in the same sequence, the figures for `CCCOC(=O)Nc1ccc(Oc2ncnc3cc(OC)c(OC)cc23)cc1` [Example 314, Propyl N-{4-[(6,7-dimethoxy-4-quinazolinyl)oxy]phenyl}carbamate] were 0.044 µM and 0.032 µM.
As for `COc1ccccc1COC(=O)Nc1ccc(Oc2ncnc3cc(OC)c(OC)cc23)cc1` [Example 315, 2-Methoxybenzyl N-{4-[(6,7-dimethoxy-4-quinazolinyl)oxy]phenyl}carbamate], the IC50 at PDGF-Ra was below 0.01 µM; at c-kit it was 0.082 µM.
As to `COc1ccccc1COC(=O)Nc1ccc(Oc2ncnc3cc(OC)c(OC)cc23)cc1Cl` [Example 316, 2-Methoxybenzyl N-{2-chloro-4-[(6,7-dimethoxy-4-quinazolinyl)oxy]phenyl}carbamate], the IC50 on PDGF-Ra amounted to 0.01 µM. Also, the inhibition at 1 µM at c-kit amounted to 40%.
As to `COc1cc2ncnc(Oc3ccc(NC(=O)OCc4ccccc4Cl)cc3)c2cc1OC` [Example 317, 2-Chlorobenzyl N-{4-[(6,7-dimethoxy-4-quinazolinyl)oxy]phenyl}carbamate], the IC50 on PDGF-Ra was below 0.01 µM; on c-kit, 0.136 µM.
Taken in the same sequence, the figures for `COc1cc2ncnc(Oc3ccc(NC(=O)OCc4ccccc4Cl)c(Cl)c3)c2cc1OC` [Example 318, 2-Chlorobenzyl N-{2-chloro-4-[(6,7-dimethoxy-4-quinazolinyl)oxy]phenyl}carbamate] were 0.01 µM and 0.418 µM.
Taken in the same sequence, the figures for `COc1cc2ncnc(Oc3ccc(NC(=O)OCc4ccccc4C)cc3)c2cc1OC` [Example 319, 2-Methylbenzyl N-{4-[(6,7-dimethoxy-4-quinazolinyl)oxy]phenyl}carbamate] were below 0.01 µM and 0.098 µM.
For the molecule `COc1cc2ncnc(Oc3ccc(NC(=O)OCc4ccccc4C)c(Cl)c3)c2cc1OC` [Example 320, 2-Methylbenzyl N-{2-chloro-4-[(6,7-dimethoxy-4-quinazolinyl)oxy]phenyl}carbamate], the IC50 was below 0.01 µM on PDGF-Ra and 0.596 µM on c-kit.
Take `CCCCOC(=O)Nc1ccc(Oc2ccnc3cc(OC)c(OC)cc23)cc1` [Example 321, Butyl N-{4-[(6,7-dimethoxy-4-quinolyl)oxy]phenyl}carbamate]: the IC50 on PDGF-Ra was below 0.01 µM; at c-kit it was 0.037 µM.
As to `CCCCOC(=O)Nc1cc(C)c(Oc2ccnc3cc(OC)c(OC)cc23)cc1C` [Example 322, Butyl N-{4-[(6,7-dimethoxy-4-quinolyl)oxy]-2,5-dimethylphenyl}carbamate], the IC50 at PDGF-Ra is below 0.01 µM; at c-kit it was 0.06 µM.
With `CCCCOC(=O)Nc1ccc(Oc2ccnc3cc(OC)c(OC)cc23)c(C)c1C` [Example 323, Butyl N-{4-[(6,7-dimethoxy-4-quinolyl)oxy]-2,3-dimethylphenyl}carbamate], the IC50 at PDGF-Ra is below 0.01 µM; at c-kit, below 0.03 µM.
With `COc1cc2nccc(Oc3ccc(NC(=O)OC(C)C)cc3)c2cc1OC` [Example 324, Isopropyl N-{4-[(6,7-dimethoxy-4-quinolyl)oxy]phenyl}carbamate], the IC50 on PDGF-Ra is 0.012 µM; on c-kit, 0.064 µM.
Taken in the same sequence, the figures for `COc1cc2nccc(Oc3ccc(NC(=O)OC(C)C)c(C)c3C)c2cc1OC` [Example 325, Isopropyl N-{4-[(6,7-dimethoxy-4-quinolyl)oxy]-2,3-dimethylphenyl}carbamate] were below 0.01 µM and 0.046 µM.
As to `CCCCCCCCCCCCCCCCCCOC(=O)Nc1ccc(Oc2ccnc3cc(OC)c(OC)cc23)cc1` [Example 326, Octadecyl N-{4-[(6,7-dimethoxy-4-quinolyl)oxy]phenyl}carbamate], on PDGF-Ra, the inhibition at 0.1 µM was determined as 31% and the IC50 was above 0.1 µM. Besides, at c-kit, the inhibition at 1 µM was determined as 18%.
In the case of `CCCCCCCCCCCCCCCCCCOC(=O)Nc1cc(C)c(Oc2ccnc3cc(OC)c(OC)cc23)cc1C` [Example 327, Octadecyl N-{4-[(6,7-dimethoxy-4-quinolyl)oxy]-2,5-dimethylphenyl}carbamate], on PDGF-Ra, the inhibition at 0.1 µM was determined as 30% and the IC50 is above 0.1 µM. In addition, the inhibition at 1 µM at c-kit was 6%.
Taken in the same sequence, the figures for `CCCCCCCCCCCCCCCCCCOC(=O)Nc1ccc(Oc2ccnc3cc(OC)c(OC)cc23)c(C)c1C` [Example 328, Octadecyl N-{4-[(6,7-dimethoxy-4-quinolyl)oxy]-2,3-dimethylphenyl}carbamate] were 22%, above 0.1 µM and 10%.
For `CCCCC(CC)OC(=O)Nc1ccc(Oc2ccnc3cc(OC)c(OC)cc23)cc1` (centres unmarked) [Example 329, 1-Ethylpentyl N-{4-[(6,7-dimethoxy-4-quinolyl)oxy]phenyl}carbamate], the IC50 on PDGF-Ra was below 0.01 µM; on c-kit, 0.253 µM.

By IC50 is commonly meant the concentration needed to halve the response being measured. Broadly, the inhibition is the drop in the measured response relative to a control, in per cent.
